Biological target: T1, Sodium- and chloride-dependent glycine transporter 1 (Homo sapiens, UniProt P48067)
T1 sequence (P48067 whole entry): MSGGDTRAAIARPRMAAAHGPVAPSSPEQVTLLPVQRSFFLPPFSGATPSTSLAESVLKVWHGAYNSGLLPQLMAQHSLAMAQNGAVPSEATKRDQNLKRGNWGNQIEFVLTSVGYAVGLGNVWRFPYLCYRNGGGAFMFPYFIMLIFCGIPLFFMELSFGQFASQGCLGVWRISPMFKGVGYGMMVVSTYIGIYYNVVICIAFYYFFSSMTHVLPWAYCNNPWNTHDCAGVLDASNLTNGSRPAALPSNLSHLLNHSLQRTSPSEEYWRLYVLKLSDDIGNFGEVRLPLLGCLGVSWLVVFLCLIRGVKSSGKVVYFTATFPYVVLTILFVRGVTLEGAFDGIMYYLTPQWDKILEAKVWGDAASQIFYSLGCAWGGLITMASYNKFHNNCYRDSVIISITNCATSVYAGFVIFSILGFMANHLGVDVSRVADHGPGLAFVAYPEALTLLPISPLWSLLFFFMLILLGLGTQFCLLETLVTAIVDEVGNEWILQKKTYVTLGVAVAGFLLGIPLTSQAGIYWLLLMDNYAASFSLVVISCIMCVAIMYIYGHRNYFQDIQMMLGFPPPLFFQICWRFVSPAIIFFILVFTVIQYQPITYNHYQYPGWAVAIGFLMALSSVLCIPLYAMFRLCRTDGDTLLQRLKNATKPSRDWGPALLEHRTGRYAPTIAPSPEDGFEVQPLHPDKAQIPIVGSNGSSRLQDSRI
Assay: Inhibition of [3H]glycine uptake at human GlyT1 by radiometric assay
Conditions: not given

SMILES	EC50 [nM]
O=C1NCN(c2ccccc2)C12CCN(C1CCCCC1(O)c1ccccc1)CC2 (stereo not given)	44
COc1cccc(C2(O)CCCCC2N2CCC3(CC2)C(=O)NCC3c2ccc(F)cc2)c1 (single isomer, unassigned; diastereomer 4)	5300
Cc1ccccc1C1(O)CCCCC1N1CCC2(CC1)C(=O)NCC2c1ccc(F)cc1 (single isomer, unassigned; diastereomer 3)	17700
CS(=O)(=O)c1ccc(C2(O)CCCCC2N2CCC3(CC2)C(=O)NCC3c2ccc(F)cc2)cc1 (stereo not given)	18600
CC(C)(C)c1ccc(C2(O)CCCCC2N2CCC3(CC2)C(=O)NCC3c2ccc(F)cc2)cc1 (single isomer, unassigned; diastereomer 2)	> 30000
O=C1NCC(c2ccc(F)cc2)C12CCN(C1CCCCC1(O)c1ccccc1OC(F)(F)F)CC2 (stereo not given)	1390
O=C1NCC(c2ccc(F)cc2)C12CCN(C1CCCCC1(O)c1ccccc1F)CC2 (single isomer, unassigned; diastereomer 4)	69
N#Cc1ccc(C2(O)CCCCC2N2CCC3(CC2)C(=O)NCC3c2ccc(F)cc2)cc1 (mixture of isomers)	1950
COc1cccc(C2(O)CCCCC2N2CCC3(CC2)C(=O)NCC3c2ccc(F)cc2)c1 (single isomer, unassigned; diastereomer 2)	2600
COc1cccc(C2(O)CCCCC2N2CCC3(CC2)C(=O)NCC3c2ccc(F)cc2)c1 (single isomer, unassigned; diastereomer 3)	127
O=C1NCC(c2ccc(F)cc2)C12CCN(C1CCCCC1(O)c1cccc(Cl)c1)CC2 (stereo in doubt; form 1)	118
N#Cc1ccc(C2(O)CCCCC2N2CCC3(CC2)C(=O)NCC3c2ccc(F)cc2)cc1 (single isomer, unassigned; diastereomer 2)	11300
Cc1cccc(C2(O)CCCCC2N2CCC3(CC2)C(=O)NCC3c2ccc(F)cc2)c1 (single isomer, unassigned; diastereomer 2)	10700
O=C1NCC(c2ccc(F)cc2)C12CCN(C1CCCCC1(O)c1cccc(F)c1)CC2 (single isomer, unassigned; diastereomer 1)	95
COc1ccc(C2(O)CCCCC2N2CCC3(CC2)C(=O)NCC3c2ccc(F)cc2)cc1 (stereo in doubt)	158
COc1cccc(C2(O)CCCCC2N2CCC3(CC2)C(=O)NCC3c2ccc(F)cc2)c1 (stereo in doubt)	158
O=C1NCC(c2ccc(F)cc2)C12CCN(C1CCCCC1(O)c1cccc(F)c1)CC2 (single isomer, unassigned; diastereomer 2)	77
Cc1ccc(C2(O)CCCCC2N2CCC3(CC2)C(=O)NCC3c2ccc(F)cc2)cc1 (single isomer, unassigned; diastereomer 1)	420
O=C1NCC(c2ccc(F)cc2)C12CCN(C1CCCCC1(O)c1ccccc1F)CC2 (stereo in doubt)	1770
Cc1ccccc1C1(O)CCCCC1N1CCC2(CC1)C(=O)NCC2c1ccc(F)cc1 (stereo in doubt)	110
COc1ccc(C2(O)CCCCC2N2CCC3(CC2)C(=O)NCC3c2ccccc2)cc1 (stereo not given)	4480
O=C1NCC(c2ccccc2)C12CCN(C1CCCCC1(O)c1cccc(F)c1)CC2 (single isomer, unassigned; diastereomer 1)	158
O=C1NCC(c2ccccc2)C12CCN(C1CCCCC1(O)c1cccc(F)c1)CC2 (single isomer, unassigned; diastereomer 3)	127

SMILES	EC50 [nM]
Cc1ccccc1C1(O)CCCCC1N1CCC2(CC1)C(=O)NCC2c1ccc(F)cc1 (single isomer, unassigned; diastereomer 1)	596
COc1ccc(C2(O)CCCCC2N2CCC3(CC2)C(=O)NCC3c2ccc(F)cc2)cc1 (single isomer, unassigned; diastereomer 1)	3300
O=C1NCC(c2ccccc2)C12CCN(C1CCCCC1(O)c1cccc(F)c1)CC2 (single isomer, unassigned; diastereomer 2)	2600
COc1cccc(C2(O)CCCCC2N2CCC3(CC2)C(=O)NCC3c2ccccc2)c1 (stereo not given)	> 30000
O=C1NCC(c2ccc(F)cc2)C12CCN(C1CCCCC1(O)c1cccc(F)c1)CC2 (single isomer, unassigned; diastereomer 4)	646
O=C1NCC(c2ccccc2)C12CCN(C1CCCCC1(O)c1cccc(F)c1)CC2 (single isomer, unassigned; diastereomer 4)	5300
O=C1NC[C@@H](c2ccccc2)C12CCN(C1CCCCC1c1ccccc1)CC2 (stereo in doubt; 3)	232
O=C1NCC(c2ccc(F)cc2)C12CCN(C1CCCCC1(O)c1ccc(C(F)(F)F)cc1)CC2 (stereo not given)	1310
Cc1cccc(C2(O)CCCCC2N2CCC3(CC2)C(=O)NCC3c2ccc(F)cc2)c1 (single isomer, unassigned; diastereomer 1)	2640
CC(C)(C)c1ccc(C2(O)CCCCC2N2CCC3(CC2)C(=O)NCC3c2ccc(F)cc2)cc1 (single isomer, unassigned; diastereomer 1)	> 30000
COc1ccc(C2(O)CCCCC2N2CCC3(CC2)C(=O)NCC3c2ccc(F)cc2)cc1 (single isomer, unassigned; diastereomer 2)	1180
O=C1NCC(c2ccc(F)cc2)C12CCN(C1CCCCC1(O)c1ccccc1F)CC2 (single isomer, unassigned; diastereomer 1)	596
Cc1ccc(C2(O)CCCCC2N2CCC3(CC2)C(=O)NCC3c2ccc(F)cc2)cc1 (single isomer, unassigned; diastereomer 2)	> 30000
O=C1NCC(c2ccc(F)cc2)C12CCN(C1CCCCC1(O)c1ccccc1F)CC2 (single isomer, unassigned; diastereomer 2)	110
Cc1ccc(C2(O)CCCCC2N2CCC3(CC2)C(=O)NCC3c2ccc(F)cc2)cc1 (single isomer, unassigned; diastereomer 3)	437
O=C1NCC(c2ccc(F)cc2)C12CCN(C1CCCCC1(O)c1cccc(Cl)c1)CC2 (single isomer, unassigned; diastereomer 1)	6250
COc1ccc(C2(O)CCCCC2N2CCC3(CC2)C(=O)NCC3c2ccc(F)cc2)cc1 (single isomer, unassigned; diastereomer 3)	1130
O=C1NCC(c2ccc(F)cc2)C12CCN(C1CCCCC1(O)c1cccc(Cl)c1)CC2 (single isomer, unassigned; diastereomer 2)	2340
Cc1ccccc1C1(O)CCCCC1N1CCC2(CC1)C(=O)NCC2c1ccc(F)cc1 (single isomer, unassigned; diastereomer 4)	69
Cc1ccc(C2(O)CCCCC2N2CCC3(CC2)C(=O)NCC3c2ccc(F)cc2)cc1 (single isomer, unassigned; diastereomer 4)	132
O=C1NCC(c2ccccc2)C12CCN(C1CCCCC1(O)c1ccc(F)cc1)CC2 (single isomer, unassigned; diastereomer 2)	825
O=C1NCC(c2ccc(F)cc2)C12CCN(C1CCCCC1(O)c1cccc(Cl)c1)CC2 (stereo in doubt; form 2)	73

System: not listed separately
Assay: Intrinsic clearance in human microsome
Format: ADME
Conditions: microsomes

SMILES	microsomal CLint [µL/min/mg]
O=C1NCC(c2ccc(F)cc2)C12CCN(C1CCCCC1(O)c1ccccc1F)CC2 (single isomer, unassigned; diastereomer 4)	28
O=C1NCC(c2ccc(F)cc2)C12CCN(C1CCCCC1(O)c1cccc(F)c1)CC2 (single isomer, unassigned; diastereomer 2)	11

System: not listed separately
Assay: Intrinsic clearance in mouse microsome
Format: ADME
Conditions: microsomes

SMILES	microsomal CLint [µL/min/mg]
O=C1NCC(c2ccc(F)cc2)C12CCN(C1CCCCC1(O)c1ccccc1F)CC2 (single isomer, unassigned; diastereomer 4)	39
O=C1NCC(c2ccc(F)cc2)C12CCN(C1CCCCC1(O)c1cccc(F)c1)CC2 (single isomer, unassigned; diastereomer 2)	16

Biological target: Nociceptin receptor (Homo sapiens, UniProt P41146)
Assay: Displacement of [3H]NOP from human NOP receptors expressed in HEK293 cells
Format: cell-based
Conditions: not given

Nociceptin receptor, sequence (P41146 whole entry): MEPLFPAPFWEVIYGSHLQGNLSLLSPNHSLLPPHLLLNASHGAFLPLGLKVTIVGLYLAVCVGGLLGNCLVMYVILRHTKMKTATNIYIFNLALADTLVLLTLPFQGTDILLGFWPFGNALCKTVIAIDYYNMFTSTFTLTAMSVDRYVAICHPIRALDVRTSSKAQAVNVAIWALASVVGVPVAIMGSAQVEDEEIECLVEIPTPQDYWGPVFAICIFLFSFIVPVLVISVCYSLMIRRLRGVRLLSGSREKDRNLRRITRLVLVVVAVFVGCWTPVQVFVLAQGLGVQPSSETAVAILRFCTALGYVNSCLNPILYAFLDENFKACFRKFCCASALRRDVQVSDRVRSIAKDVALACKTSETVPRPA

SMILES	IC50 [nM]
O=C1NCC(c2ccccc2)C12CCN(C1CCCCC1(O)c1ccc(F)cc1)CC2 (single isomer, unassigned; diastereomer 3)	> 10000
O=C1NC[C@@H](c2ccccc2)C12CCN(C1CCCCC1c1ccccc1)CC2 (stereo in doubt; 3)	> 10000

Same assay, conditions: hek293

SMILES	IC50 [nM]
O=C1NCC(c2ccccc2)C12CCN(C1CCCCC1(O)c1ccc(F)cc1)CC2 (single isomer, unassigned; diastereomer 2)	> 10000

Biological target: T2, Sodium- and chloride-dependent glycine transporter 2 (Homo sapiens, UniProt Q9Y345)
T2 sequence (Q9Y345 whole entry): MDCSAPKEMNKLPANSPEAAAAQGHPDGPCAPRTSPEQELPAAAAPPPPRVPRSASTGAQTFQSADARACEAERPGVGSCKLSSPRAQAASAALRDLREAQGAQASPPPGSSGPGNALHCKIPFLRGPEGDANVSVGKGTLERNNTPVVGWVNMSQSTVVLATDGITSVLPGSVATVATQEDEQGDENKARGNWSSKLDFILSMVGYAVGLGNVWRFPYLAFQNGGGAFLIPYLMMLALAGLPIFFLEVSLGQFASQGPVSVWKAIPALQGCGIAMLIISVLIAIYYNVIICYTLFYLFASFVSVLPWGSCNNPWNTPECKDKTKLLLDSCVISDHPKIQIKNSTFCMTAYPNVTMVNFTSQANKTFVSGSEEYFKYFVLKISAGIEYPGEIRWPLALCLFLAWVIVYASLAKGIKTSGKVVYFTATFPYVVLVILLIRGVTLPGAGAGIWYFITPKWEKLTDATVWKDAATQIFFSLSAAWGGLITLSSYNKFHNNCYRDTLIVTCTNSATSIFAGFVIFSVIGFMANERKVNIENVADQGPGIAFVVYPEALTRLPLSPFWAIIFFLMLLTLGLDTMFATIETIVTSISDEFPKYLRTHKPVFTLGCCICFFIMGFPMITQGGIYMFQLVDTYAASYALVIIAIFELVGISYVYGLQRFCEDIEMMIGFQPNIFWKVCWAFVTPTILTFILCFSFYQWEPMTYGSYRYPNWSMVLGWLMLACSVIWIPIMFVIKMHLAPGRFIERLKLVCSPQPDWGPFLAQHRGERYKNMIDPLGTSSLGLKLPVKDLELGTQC
Assay: Inhibition of [3H]glycine uptake at human GlyT2 by radiometric assay
Conditions: not given

SMILES	EC50 [nM]
O=C1NCN(c2ccccc2)C12CCN(C1CCCCC1(O)c1ccccc1)CC2 (stereo not given)	72000
O=C1NCC(c2ccccc2)C12CCN(C1CCCCC1(O)c1ccc(F)cc1)CC2 (single isomer, unassigned; diastereomer 3)	> 30000
O=C1NC[C@@H](c2ccccc2)C12CCN(C1CCCCC1c1ccccc1)CC2 (stereo in doubt; 3)	25000
